Source: patent publication US9073895B2 (Boehringer Ingelheim International GmbH, priority 2010, dated 2015)

Tests used:
[1] = tested on: synthesis of LTB4 in human whole blood; test: Human whole blood LTB4 production inhibition assay; format: cell-based; conditions: heparinized human whole blood, calcimycin 20 μM, plasma LTB4; read-out: HuWB IC50
Protocol: Compounds are additionally tested in a human whole blood assay to determine their ability to inhibit the synthesis of LTB4 in a cellular system. Compounds are combined with heparinized human whole blood and incubated for 15 minutes at 37° C. Calcimycin (20 μM final, prepared in phosphate-buffered saline, pH 7.4) is then added and the mixture is incubated for another 30 minutes at 37° C. The samples are centrifuged for 5 min at low speed (1500×g) and the plasma layer is removed. Plasma LTB4 concentrations are then measured using an antibody-based homogenous time-resolved fluorescence method (CisBio, Bedford, Mass.).

[2] = target: T1, recombinant human FLAP protein (Homo sapiens, UniProt P20292); test: FLAP binding assay (SPA, displacement of [125I]L-691,831); conditions: membranes of sf9 cells expressing human FLAP, [125I]L-691,831 probe; read-out: hFLAP binding IC50
T1 construct: made in house; host or cells: Sf9 insect cells (membrane fraction, 100,000 x g pellet)
T1 sequence (P20292 1-161): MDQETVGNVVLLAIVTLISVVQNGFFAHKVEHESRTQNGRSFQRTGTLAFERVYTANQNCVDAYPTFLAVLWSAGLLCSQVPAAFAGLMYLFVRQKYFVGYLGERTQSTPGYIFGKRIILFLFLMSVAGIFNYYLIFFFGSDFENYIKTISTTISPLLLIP
Protocol: Compounds are assessed for the ability to bind to FLAP in a binding assay that measures compound-specific displacement of an iodinated (^125I) FLAP inhibitor via a Scintillation Proximity Assay format (adapted from S. Charleson et al., Mol. Pharmacol., 1992, 41, 873-879).
Cell pellets produced from sf9 insect cells expressing recombinant human FLAP protein are resuspended in buffer A [15 mM Tris-HCl (pH 7.5), 2 mM MgCl2, 0.3 mM EDTA, 1 mM PMSF]. The cells are lysed with a Dounce homogenizer and the material is centrifuged at 10,000×g for 10 minutes. The supernatant is then collected and centrifuged at 100,000×g for 60 minutes. To prepare membrane protein for an assay, an aliquot of the 100,000×g pellet is resuspended in 1 ml of buffer A, Dounce homogenized, and finally subjected to polytron mixing (30 seconds). Membrane protein (25 μl, 5 μg) is mixed with WGA SPA beads (Amersham) and stirred for 1 h. To an assay plate (Perkin Elmer FlexiPlate) is added 25 μl of test compound prepared in Binding buffer [100 mM Tris (pH 7.5), 140 mM NaCl, 5% glycerol, 2 mM EDTA, 0.5 mM TCEP, 0.05% Tween 20], 25 μl of [^125I]L-691,831 (an iodinated analog of MK-591, Charleson et al. Mol. Pharmacol., 41, 873-879, 1992) and finally 50 μl of the bead/protein mixture. (final concentrations: beads, 200 μg/well; protein, 5μg/well; [^125I] probe, 0 08 nM/well(17 nCi/well). The plates are shaken for 2 h before reading on a Microbeta plate reader. Non-specific binding is determined by the addition of 10 μM cold L-691,831 compound.

Row | Compound | IC50 [1] | IC50 [2]
1 | Nc1ncc(-c2ccc(C3(C(=O)Nc4ccc(Oc5ccccc5)cc4)CCOCC3)cc2)cn1 [Example 1, 4-[4-(2-aminopyrimidin-5-yl)phenyl]-N-(4-phenoxyphenyl)tetrahydro-2H-pyran-4-carboxamide] | 461 nM | 16 nM
2 | COc1ccc(NC(=O)C2(c3ccc(-c4cnc(N)nc4)cc3)CCOCC2)cn1 [Example 2, 4-[4-(2-aminopyrimidin-5-yl)phenyl]-N-(6-methoxypyridin-3-yl)tetrahydro-2H-pyran-4-carboxamide] | 1370 nM | 210 nM
3 | Nc1ncc(-c2ccc(C3(C(=O)Nc4ccc(C5CCCCC5)cc4)CCOCC3)cc2)cn1 [Example 5, 4-[4-(2-aminopyrimidin-5-yl)phenyl]-N-(4-cyclohexylphenyl)tetrahydro-2H-pyran-4-carboxamide] | 2970 nM | 101 nM
4 | Nc1ncc(-c2ccc(C3(C(=O)Nc4ccc(C(=O)O)cn4)CCOCC3)cc2)cn1 [Example 157, 6-[({4-[4-(2-aminopyrimidin-5-yl)phenyl]tetrahydro-2H-pyran-4-yl}carbonyl)amino]pyridine-3-carboxylic acid] |  | 410 nM
5 | CC(C)(O)c1ccc(NC(=O)C2(c3ccc(-c4cnc(N)nc4)cc3)CCOCC2)nc1 [Example 159, 4-[4-(2-aminopyrimidin-5-yl)phenyl]-N-[5-(2-hydroxypropan-2-yl)pyridin-2-yl]tetrahydro-2H-pyran-4-carboxamide] |  | 420 nM
6 | CCCCCc1ccnc(NC(=O)C2(c3ccc(-c4cnc(N)nc4)cc3)CCOCC2)c1 [Example 161, 4-[4-(2-aminopyrimidin-5-yl)phenyl]-N-(4-pentylpyridin-2-yl)tetrahydro-2H-pyran-4-carboxamide] |  | 31 nM
7 | COc1nc(-c2ccc(C3(C(=O)Nc4ccc(-c5csc(C)n5)cn4)CCOCC3)cc2)cnc1N [Example 181, 4-[4-(5-amino-6-methoypyrazin-2-yl)phenyl]-N-[5-(2-methyl-1,3-thiazol-4-yl)pyridin-2-yl]tetrahydro-2H-pyran-4-carboxamide] |  | 110 nM
8 | Cc1cnc(NC(=O)C2(c3ccc(-c4cnc(N)nc4)cc3)CCC2)s1 [Example 211, 1-[4-(2-aminopyrimidin-5-yl)phenyl]-N-(5-methyl-1,3-thiazol-2-yl)cyclobutanecarboxamide] |  | 23.5 nM
9 | Nc1ncc(-c2ccc(C3(C(=O)Nc4ccnc(O)c4)CCC3)cc2)cn1 [Example 220, 1-[4-(2-aminopyrimidin-5-yl)phenyl]-N-(2-hydroxypyridin-4-yl)cyclobutanecarboxamide] |  | 470 nM
10 | COc1ccc(-c2nc(NC(=O)C3(c4ccc(-c5cnc(N)nc5)cc4)CCC3)n[nH]2)cc1 [Example 244, 1-[4-(2-aminopyrimidin-5-yl)phenyl]-N-[5-(4-methoxyphenyl)-1H-1,2,4-triazol-3-yl]cyclobutanecarboxamide] |  | 10.8 nM
11 | Nc1ncc(-c2ccc(C3(C(=O)Nc4ccc(N5CCOCC5)cc4)CCC3)cc2)cn1 [Example 246, 1-[4-(2-aminopyrimidin-5-yl)phenyl]-N-[4-(morpholin-4-yl)phenyl]cyclobutanecarboxamide] |  | 34 nM
12 | Cc1nc(-c2ccc(NC(=O)C(c3ccc(-c4cnc(N)nc4)cc3)C3CCCC3)nc2)cs1 (stereo not shown) [Example 248, 2-[4-(2-aminopyrimidin-5-yl)phenyl]-2-cyclopentyl-N-[5-(2-methyl-1,3-thiazol-4-yl)pyridin-2-yl]acetamide] |  | 240 nM

The remaining compounds from weak to strong by IC50 [2], led by results:

Row | IC50 [1] | IC50 [2] | Compound
13 |  | 270 nM | CC(=O)Nc1ccc(-c2ccc(C3(C(=O)Nc4ccc(-c5csc(C)n5)cn4)CCOCC3)cc2)cn1 [Example 206, 4-{4-[6-(acetylamino)pyridin-3-yl]phenyl}-N-[5-(2-methyl-1,3-thiazol-4-yl)pyridin-2-yl]tetrahydro-2H-pyran-4-carboxamide]
14 |  | 250 nM | CC(C)C(C)(C(=O)Nc1ccncc1)c1ccc(-c2ccc(NCCO)nc2)cc1 (stereo not shown) [Example 226, 2-(4-{6-[(2-hydroxyethyl)amino]pyridin-3-yl}phenyl)-2,3-dimethyl-N-(pyridin-4-yl)butanamide]
15 |  | 230 nM | COCCNc1ncc(-c2ccc(C3(C(=O)Nc4ccc(-c5csc(C)n5)cn4)CCOCC3)cc2)cn1 [Example 207, 4-(4-{2-[(2-methoxyethyl)amino]pyrimidin-5-yl}phenyl)-N-[5-(2-methyl-1,3-thiazol-4-yl)pyridin-2-yl]tetrahydro-2H-pyran-4-carboxamide]
16 |  | 56.5 nM | Nc1ncc(-c2ccc(C3(C(=O)Nc4ccccc4-c4ccccc4)CCC3)cc2)cn1 [Example 202, 1-[4-(2-aminopyrimidin-5-yl)phenyl]-N-(biphenyl-2-yl)cyclobutanecarboxamide]
17 | 808 nM | 38.5 nM | Cc1nnnn1-c1ccc(NC(=O)C2(c3ccc(-c4cnc(N)nc4)cc3)CCOCC2)cc1 [Example 4, 4-[4-(2-aminopyrimidin-5-yl)phenyl]-N-[4-(5-methyl-1H-tetrazol-1-yl)phenyl]tetrahydro-2H-pyran-4-carboxamide]
18 |  | 22.5 nM | Cc1ccc(NC(=O)C2(c3ccc(-c4cnc(N)nc4)cc3)CCC2)cn1 [Example 249, 1-[4-(2-aminopyrimidin-5-yl)phenyl]-N-(6-methylpyridin-3-yl)cyclobutanecarboxamide]
19 |  | 22 nM | Nc1ncc(-c2ccc(C3(C(=O)Nc4n[nH]c(-c5ccccc5)n4)CCC3)cc2)cn1 [Example 243, 1-[4-(2-aminopyrimidin-5-yl)phenyl]-N-(5-phenyl-1H-1,2,4-triazol-3-yl)cyclobutanecarboxamide]
20 |  | 16 nM | Cc1nc(-c2ccc(NC(=O)C3(c4ccc(-c5cnc(N)nc5)cc4)CC3)nc2)cs1 [Example 251, 1-[4-(2-aminopyrimidin-5-yl)phenyl]-N-[5-(2-methyl-1,3-thiazol-4-yl)pyridin-2-yl]cyclopropanecarboxamide]
21 |  | 15 nM | Cc1cc(NC(=O)C2(c3ccc(-c4cnc(N)nc4)cc3)CCC2)nc(C)n1 [Example 212, 1-[4-(2-aminopyrimidin-5-yl)phenyl]-N-(2,6-dimethylpyrimidin-4-yl)cyclobutanecarboxamide]
22 |  | 13 nM | Cc1nc(NC(=O)C2(c3ccc(-c4cnc(N)nc4)cc3)CCC2)sc1C [Example 209, 1-[4-(2-aminopyrimidin-5-yl)phenyl]-N-(4,5-dimethyl-1,3-thiazol-2-yl)cyclobutanecarboxamide]
23 |  | 13 nM | Nc1ncc(-c2ccc(C3(C(=O)Nc4ccccn4)CCCCC3)cc2)cn1 [Example 160, 1-[4-(2-aminopyrimidin-5-yl)phenyl]-N-(pyridin-2-yl)cyclohexanecarboxamide]
24 | 328 nM | 11.2 nM | N#Cc1ccc(NC(=O)C2(c3ccc(-c4cnc(N)nc4)cc3)CCOCC2)cc1Cl [Example 3, 4-[4-(2-aminopyrimidin-5-yl)phenyl]-N-(3-chloro-4-cyanophenyl)tetrahydro-2H-pyran-4-carboxamide]
25 |  | 4.4 nM | NC(=O)c1ccc(NC(=O)C2(c3ccc(-c4cnc(N)nc4)cc3)CCC2)cn1 [Example 240, 5-[({1-[4-(2-aminopyrimidin-5-yl)phenyl]cyclobutyl}carbonyl)amino]pyridine-2-carboxamide]
26 |  | 3.95 nM | Nc1ncc(-c2ccc(C3(C(=O)Nc4nc(-c5ccccc5)ns4)CCC3)cc2)cn1 [Example 242, 1-[4-(2-aminopyrimidin-5-yl)phenyl]-N-(3-phenyl-1,2,4-thiadiazol-5-yl)cyclobutanecarboxamide]
